Reference: patent US20210338647A1, “Combination of Acetylcholinesterase Inhibitor and 5-HT4 Receptor Agonist As Neuroprotective Agent In the Treatment of Neurodegenerative Diseases” (UNIVERSITE DE CAEN NORMANDIE, priority 2018, published 2021)
Marks after values point to notes of the source that are not given here.

What was measured:
[1] = test system: rat primary hippocampal neurons injured with Aβ 1-42; experiment: Neurite network of MAP-2 neurons in primary culture of hippocampal neurons injured with Aβ 1-42; assay type: cell-based; details: for Neurite network / Neurite/neuron: Aβ1-42 20 μM/2.5 μM, percentage of control, Example 3
Protocol: (§1) Rat hippocampal neurons were cultured as described by Callizot et al. (2013) J. Neurosci. Res. 91706-716. Pregnant female rats of 17 days gestation (Rats Wistar; Janvier Labs France) were killed using a deep anesthesia with CO2 chamber followed by a cervical dislocation. Then, fetuses were removed from the uterus and immediately placed in ice-cold L15 Leibovitz medium with a 2% penicillin (10,000 U/ml) and streptomycin (10 mg/ml) solution (PS) and 1% bovine serum albumin (BSA). Hippocampal neurons were treated for 20 min at 37° C. with a trypsin-EDTA solution at a final concentration of 0.05% trypsin and 0.02% EDTA. The dissociation was stopped by adding Dulbecco's modified Eagle's medium (DMEM) with 4.5 g/l of glucose, containing DNAse I grade 11 (final concentration 0.5 mg/ml) and 10% fetal calf serum (FCS). Cells were mechanically dissociated by three forced passages through the tip of a 10-ml pipette and then centrifuged at 515×g for 10 min at 4° C. The supernatant was discarded, and the pellet was resuspended in a defined culture medium consisting of Neurobasal medium with a 2% solution of B27 supplement, 2 mmol/l of L-glutamine, 2% of PS solution, and 10 ng/ml of brain-derived neurotrophic factor (BDNF). Viable cells were counted in a Neubauer cytometer, using the trypan blue exclusion test. […] The medium was changed every 2 days.
(§2) The hippocampal neurons were exposed with Aβ solutions (see below) after 17 days of culture. The Aβ1-42 preparation was done following the procedure described by Callizot et al. (2013) J. Neurosci. Res. 91706-716. Briefly, Aβ1-42 peptide was dissolved in the defined culture medium mentioned above, at an initial concentration of 40 μM. This solution was gently agitated for 3 days at 37° C. in the dark and immediately used after being properly diluted in culture medium to the concentrations used (20 μM (plate 1) or 2.5 μM (plate 2) corresponding to 2 μM or 0.25 μM of oligomers (AβO) respectively).
(§3) Donecopride fumarate was solved in culture medium and preincubated 1 h before Aβ application. Aβ1-42 preparation was added to a final concentration of 20 or 2.5 μM (=2 μM or 0.25 μM of AβO, evaluated by automatic Western Blot) diluted in control medium in presence of Donecopride.
(§4) Donecopride fumarate (Donecopride) was tested on one culture in a 96 well plate (6 wells per conditions). The compound was preincubated one hour before […] application. The following conditions were assessed:
(§5) After permeabilization with 0.1% of saponin, cells were incubated for 2 h with:
a) chicken polyclonal antibody anti microtubule-associated-protein 2 (MAP-2), diluted at 1/1000 in PBS containing 1% fetal calf serum and 0.1% of saponin (this antibody allows the specific staining of neuronal cell bodies and neurites; and allow the study of neuronal cell death and neurite network).
(§6) For each condition, 30 pictures (representative of the whole well area) per well were taken using ImageXpress (Molecular Devices) at 20× magnification. All images were taken with the same acquisition parameters. Analyses were performed automatically by using Custom Module Editor (Molecular Devices).
Neurite network (in μm of MAP-2 positive neurons)
The neurite network is proportional to the number of neurons in the culture. The total neurite network was normalized by the number of neurons, in order to determine the average length of neurite per neurons.
Rat hippocampal neurons were cultured as described by Callizot et al. (2013) J. Neurosci. Res. 91:706-716. Briefly, pregnant female rats of 17 days gestation (Rats Wistar; Janvier Labs France) were killed using a deep anesthesia with CO2 chamber and a cervical dislocation. Then, fetuses were removed from the uterus and immediately placed in ice-cold L15 Leibovitz medium with a 2% penicillin (10,000 U/ml) and streptomycin (10 mg/ml) solution (PS) and 1% bovine serum albumin (BSA). The hippocampi were treated for 20 min at 37° C. with a trypsin-EDTA solution at a final concentration of 0.05% trypsin and 0.02% EDTA. […]

phospho Tau (AT100) = experiment: Phosphorylation of Tau (AT100) in MAP-2 neurons injured with Aβ 1-42; assay type: cell-based, rat; details: for AT100: Aβ1-42 20 μM/2.5 μM, percentage of control, Example 3
Protocol: as §1, §2, §3, §4, §5
b) mouse monoclonal antibody anti-phospho Tau (AT100) at dilution of 1/400 in PBS containing 1% fetal calf serum and 0.1% of saponin.
as §6
area of tau in neurons (μm^2, overlapping with MAP-2 positive neurons).
Rat hippocampal neurons were cultured as described by Callizot et al. (2013) J. Neurosci. Res. 91:706-716. Briefly, pregnant female rats of 17 days gestation (Rats Wistar; Janvier Labs France) were killed using a deep anesthesia with CO2 chamber and a cervical dislocation. Then, fetuses were removed from the uterus and immediately placed in ice-cold L15 Leibovitz medium with a 2% penicillin (10,000 U/ml) and streptomycin (10 mg/ml) solution (PS) and 1% bovine serum albumin (BSA). The hippocampi were treated for 20 min at 37° C. with a trypsin-EDTA solution at a final concentration of 0.05% trypsin and 0.02% EDTA. The dissociation was stopped by addition of Dulbecco's modified Eagle's medium (DMEM) with 4.5 g/l of glucose, containing DNAse I grade II (final concentration 0.5 mg/ml) and 10% fetal calf serum (FCS). Cells were mechanically dissociated by three forced passages through the tip of a 10-ml pipette.

[2] = Aβ 1-42 injured hippocampal neurons, Example 3 step 1

COc1cc2c(cc1OC)C(=O)C(CC1CCN(Cc3ccccc3)CC1)C2 (stereo not shown) [Donepezil]
Neurite network ([1]; donepezil 100 pM): 68% | Neurite/neuron ([1]; donepezil 100 pM): 99% | Neurite network ([1]; donepezil 1 nM): 75%* | Neurite/neuron ([1]; donepezil 1 nM): 99% | Neurite network ([1]; donepezil 10 nM): 79%* | Neurite/neuron ([1]; donepezil 10 nM): 91% | Neurite network ([1]; donepezil 50 nM): 85%* | Neurite/neuron ([1]; donepezil 50 nM): 94% | Neurite network ([1]; donepezil 100 nM): 85%* | Neurite/neuron ([1]; donepezil 100 nM): 94% | Neurite network ([1]; donepezil 500 nM): 87%* | Neurite/neuron ([1]; donepezil 500 nM): 101% | Neurite network ([1]; donepezil 1 μM): 90%* | Neurite/neuron ([1]; donepezil 1 μM): 105%* | Neurite network ([1]; donepezil 10 μM): 88%* | Neurite/neuron ([1]; donepezil 10 μM): 103%* | AT100 (phospho Tau (AT100); donepezil 100 pM): 181% | AT100 (phospho Tau (AT100); donepezil 1 nM): 165%* | AT100 (phospho Tau (AT100); donepezil 1 nM, listed as donepezil): 165% | AT100 (phospho Tau (AT100); donepezil 10 nM): 146%* | AT100 (phospho Tau (AT100); donepezil 50 nM): 139%* | AT100 (phospho Tau (AT100); donepezil 100 nM): 140%* | AT100 (phospho Tau (AT100); donepezil 500 nM): 142%* | AT100 (phospho Tau (AT100); donepezil 1 μM): 141%* | AT100 (phospho Tau (AT100); donepezil 10 μM): 143%*

CCCCN1CCC(CCC(=O)c2cc(Cl)c(N)cc2OC)CC1 [RS67333, 1-(4-amino-5-chloro-2-methoxy-phenyl)-3-(1-butyl-4-piperidinyl)-1-propanone]
Lowest protective active dose: neurite network [1, 2]: 10 nM | Average length of neurites per neurons (FIG. 1C) ([1]; RS67333 alone, Aβ 1-42 injured hippocampal neurons, Example 3 step 1): protective effects | Lowest protective active dose: hyperphosphorylation of Tau (phospho Tau (AT100); [2]): 1 nM
